Reference: DBAASP
In brackets after ≈: the same amount, converted by molar mass. Blank lines part the entries; values can stand above or below the molecule they belong to.

Tests used:
Assay in all cases: ≥ marks a high value that may be exact or a test limit, other limits are often not marked, values filed in µg/mL are converted to µM
[1] = system: Candida albicans ATCC 10231
[2] = system: Staphylococcus aureus ATCC 29213
[3] = system: Pseudomonas aeruginosa ATCC 27853
[4] = system: Escherichia coli ATCC 25922
Candida krusei ATCC 6258 = system: Candida krusei ATCC 6258
[5] = system: Candida tropicalis ATCC 750
[6] = system: Candida parapsilosis ATCC 90018
[7] = system: Candida glabrata ATCC 2001
Fusarium graminearum = system: Fusarium graminearum
Staphylococcus aureus = system: Staphylococcus aureus
Escherichia coli = system: Escherichia coli
[8] = system: Bifidobacterium longum subsp. infantis
[9] = system: Bacillus subtilis KCCM 11495
[10] = system: Escherichia coli KCCM 11569
[11] = system: Staphylococcus aureus ATCC 25923
Candida albicans PEEC 2 = system: Candida albicans PEEC 2
[12] = system: Candida tropicalis DBFIQ 3
[13] = system: Enterococcus faecalis ATCC 29212
[14] = system: Staphylococcus aureus BSF FBCB1313
Candida albicans DBFIQ 1 = system: Candida albicans DBFIQ 1
[15] = system: Escherichia coli ATCC 35218
[16] = system: Escherichia coli NEB5alpha
[17] = system: Enterobacter cloacae ATCC 13047
Listeria monocytogenes = system: Listeria monocytogenes
[18] = system: Bacillus subtilis ATCC 6633
[19] = system: Bacillus subtilis ATCC 6051
[20] = system: Pseudomonas putida DSM 291
[21] = system: Listeria monocytogenes ATCC 19115
[22] = system: Clostridium perfringens ATCC 13124
[23] = system: Acinetobacter baumannii ATCC 17978
[24] = system: Salmonella typhimurium DSM 19587
[25] = system: Staphylococcus aureus ATCC 16558
[26] = system: Escherichia coli NCTC 13452
[27] = system: Enterococcus faecium ATCC 19434
[28] = system: Klebsiella pneumoniae ATCC 13883
Bacillus cereus DSM 4312 = system: Bacillus cereus DSM 4312
[29] = system: Staphylococcus aureus ATCC 6538
[30] = system: Staphylococcus aureus DSM 2569
[31] = system: Listeria monocytogenes SLCC 5581
Bacillus cereus DSM 4222 = system: Bacillus cereus DSM 4222
[32] = system: Escherichia coli ATCC 8739
[33] = system: Pseudomonas aeruginosa ATCC 10145
[34] = system: Salmonella enterica subsp. enterica serovar Typhimurium ATCC 14028
[35] = system: Staphylococcus aureus ATCC 43300
[36] = system: Escherichia coli ATCC 35150
[37] = system: Salmonella enterica subsp. enterica serovar Typhimurium DSM 554
[38] = system: Escherichia coli O157:H7 ATCC 35150
[39] = system: Staphylococcus aureus ATCC 3300
[40] = system: Pseudomonas fluorescens DSM 50124
[41] = system: Clostridium perfringens DSM 11784
[42] = system: Staphylococcus aureus RN4220

Compound: CC[C@H](C)[C@H](NC(=O)[C@@H]1CCCN1C(=O)[C@H](CC(N)=O)NC(=O)[C@H](Cc1cnc[nH]1)NC(=O)[C@@H](NC(=O)[C@@H]1CCCN1C(=O)[C@H](C)NC(=O)[C@@H](N)CC(C)C)C(C)C)C(=O)O [LAPVHNPI]
MIC (Staphylococcus aureus): 3490 µM (≈ 3000 µg/mL)
MIC (Escherichia coli): 3490 µM (≈ 3000 µg/mL)
MIC [8]: ≥ 3490 µM

Compound: CC(C)C[C@H](NC(=O)CNC(=O)[C@H](Cc1cnc[nH]1)NC(=O)[C@H](Cc1cnc[nH]1)NC(=O)[C@H](CC(C)C)NC(=O)[C@H](CC(C)C)NC(=O)[C@H](C)NC(=O)[C@H](CC(N)=O)NC(=O)[C@H](CC(C)C)NC(=O)[C@@H](N)Cc1c[nH]c2ccccc12)C(=O)N[C@@H](CC(N)=O)C(=O)N[C@@H](CS)C(=O)N[C@@H](C)C(=O)N[C@@H](CCCCN)C(=O)NCC(N)=O [WLNALLHHGLNCAKG]
MIC [9]: ≥ 38.9 µM
MIC [10]: ≥ 38.9 µM

Compound: CC(C)C[C@H](NC(=O)[C@H](CCCCN)NC(=O)[C@H](CCCCN)NC(=O)[C@H](Cc1ccccc1)NC(=O)[C@H](CC(C)C)NC(=O)[C@H](CCCCN)NC(=O)[C@H](CCCCN)NC(=O)[C@H](Cc1ccccc1)NC(=O)[C@H](CC(C)C)NC(=O)[C@@H](N)CCCCN)C(=O)N[C@@H](Cc1ccccc1)C(=O)N[C@@H](CCCCN)C(N)=O [KLFKKLFKKLFK]
MIC [11]: 2.6 µM (≈ 4.07 µg/mL)
MIC (Candida albicans PEEC 2): ≥ 40.8 µM
MIC [3]: 2.6 µM (≈ 4.07 µg/mL)
MIC [12]: ≥ 81.7 µM
MIC [13]: 5.1 µM (≈ 7.99 µg/mL)
MIC [14]: 10.2 µM (≈ 16 µg/mL)
MIC (Candida albicans DBFIQ 1): ≥ 40.8 µM
MIC [15]: 5.1 µM (≈ 7.99 µg/mL)

Second part, the molecule after the results:

MIC [1]: 250 µM (≈ 489 µg/mL)
MIC [2]: > 130 µM
MIC [3]: > 130 µM
MIC [4]: > 130 µM
MIC (Candida krusei ATCC 6258): ≥ 62.5 µM
MIC [5]: ≥ 500 µM
MIC [6]: ≥ 500 µM
MIC [7]: ≥ 500 µM
Compound: CC[C@H](C)[C@H](NC(=O)CN)C(=O)N[C@@H](CC(C)C)C(=O)N[C@@H](CC(=O)O)C(=O)N[C@H](C(=O)N[C@@H](CCCCN)C(=O)N[C@@H](CC(N)=O)C(=O)N[C@@H](CCCCN)C(=O)N[C@H](C(=O)N[C@@H](CO)C(=O)N[C@@H](CC(N)=O)C(=O)N[C@@H](CC(C)C)C(=O)N[C@@H](Cc1ccccc1)C(=O)N[C@@H](CCCCN)C(=O)N[C@@H](CCCCN)C(=O)N[C@H](C(=O)N[C@@H](CCCCN)C(N)=O)[C@@H](C)CC)C(C)C)[C@@H](C)CC [GILDIKNKVSNLFKKIK]

MIC (Fusarium graminearum): ≥ 32 µM
Compound: CC(C)C[C@H](NC(=O)[C@@H](N)CCCCN)C(=O)N[C@@H](CS)C(=O)N[C@@H](CCC(=O)O)C(=O)N[C@@H](CCCCN)C(=O)N1CCC[C@H]1C(=O)N[C@@H](CO)C(=O)N[C@@H](CCCCN)C(=O)N[C@H](C(=O)N[C@@H](Cc1c[nH]c2ccccc12)C(=O)N[C@@H](Cc1ccccc1)C(=O)NCC(=O)N[C@@H](CC(N)=O)C(=O)N[C@@H](CS)C(=O)NCC(=O)N[C@@H](CC(N)=O)C(=O)N1CCC[C@H]1C(=O)N[C@@H](CCCN=C(N)N)C(=O)N[C@@H](Cc1cnc[nH]1)C(=O)N[C@@H](CS)C(=O)NCC(=O)O)[C@@H](C)O [KLCEKPSKTWFGNCGNPRHCG]

MIC [16]: ≥ 62.5 µM
MIC [17]: ≥ 464 µM
MIC (Listeria monocytogenes): ≥ 250 µM
MIC [18]: ≥ 1160 µM
MIC [19]: 15.6 µM (≈ 33.7 µg/mL)
MIC [11]: > 464 µM
MIC [20]: ≥ 125 µM
MIC [21]: ≥ 1160 µM
MIC [22]: ≥ 125 µM
MIC [23]: ≥ 464 µM
MIC [24]: ≥ 1000 µM
MIC [25]: ≥ 1160 µM
MIC [26]: ≥ 125 µM
MIC [27]: ≥ 464 µM
MIC [28]: ≥ 464 µM
MIC (Bacillus cereus DSM 4312): ≥ 1000 µM
MIC [29]: > 1160 µM
MIC [30]: ≥ 500 µM
MIC [31]: ≥ 500 µM
MIC (Bacillus cereus DSM 4222): ≥ 1000 µM
MIC (Escherichia coli): > 464 µM
MIC [32]: ≥ 371 µM
MIC [33]: ≥ 464 µM
MIC [34]: > 464 µM
MIC [35]: > 464 µM
MIC [36]: ≥ 500 µM
MIC [37]: ≥ 1000 µM
MIC [38]: ≥ 371 µM
MIC [39]: ≥ 500 µM
MIC [40]: ≥ 500 µM
MIC [41]: ≥ 1000 µM
MIC [42]: ≥ 1160 µM
Compound: CC[C@H](C)[C@H](NC(=O)[C@@H](N)CCCN=C(N)N)C(=O)N[C@@H](CCCCN)C(=O)N[C@H](C(=O)N[C@H](C(=O)N[C@H](C(=O)N[C@@H](CO)C(=O)N[C@@H](Cc1ccccc1)C(=O)N[C@@H](CC(=O)O)C(=O)N[C@@H](CC(C)C)C(=O)N1CCC[C@H]1C(=O)N[C@@H](C)C(=O)N[C@@H](CC(C)C)C(=O)N[C@@H](CCCN=C(N)N)C(=O)N[C@@H](Cc1c[nH]c2ccccc12)C(=O)N[C@@H](CC(C)C)C(=O)N[C@@H](CCCCN)C(=O)N[C@@H](CC(C)C)C(=O)O)[C@@H](C)O)C(C)C)[C@@H](C)O [RIKTVTSFDLPALRWLKL]
